# According to patent US11318134B2, “Benzamide compounds” (priority 2018, dated 2022):
# How the values were obtained:
# Bcl-XL = Bcl-XL (Homo sapiens (Human), UniProt Q07817); assay: Bcl-XL HTRF assay (FAM-Bad peptide); format: binding; conditions: HTRF, 3 nM Bcl-XL, 40 nM FAM-Bad peptide; read-out: Bc1-XL IC50
# RS4;11 cells = assay: RS4;11 cell proliferation assay (CellTiter-Glo); format: cell-based; conditions: Homo sapiens, RS4-11, 48 h, read-out: RS4;11 (nM), CTG IC50
# NCI-H1963 cells = assay: NCI-H1963 cell proliferation assay (CellTiter-Glo); format: cell-based; conditions: Homo sapiens, NCI-H1963, 72 h, read-out: H1963 (nM), CTG IC50
# Protocol: Cell proliferation was measured using the CellTiter-Glo® Luminescent Cell Viability Assay. The assay involved the addition of a single reagent (CellTiter-Glo® Reagent) directly to cells cultured in serum-supplemented medium.
# Each compound evaluated was prepared as a DMSO stock solution (10 mM). Compounds were tested in duplicate on each plate, with a 10-point serial dilution curve (1:3 dilution). Compound treatment (1.0 μL) was added from the compound dilution plate to the cell plate. The highest compound concentration was 10 μM (final), with a 0.1% final DMSO concentration. Plates were then incubated at 37° C., 5% CO2. After 48 h of compound treatment for RS4;11 or 72 h for NCI-H1963, cell plates were equilibrated at rt for approximately 30 mins. An equi-volume amount of CellTiter-Glo® Reagent (40 μL) was added to each well. […] Luminescence was recorded using a Envision plate reader according to CellTiter-Glo protocol. IC50 of each compound was calculated using GraphPad Prism by nonlinear regression analysis.
# Bcl-2 = Bcl-2 (Homo sapiens (Human), UniProt P10415); assay: Bcl-2 HTRF assay (FAM-Bak peptide); format: binding; conditions: HTRF, 4 nM Bcl-2, 100 nM FAM-Bak peptide; read-out: Bc1-2 IC50
# Sequence of Bcl-2 (P10415 whole entry): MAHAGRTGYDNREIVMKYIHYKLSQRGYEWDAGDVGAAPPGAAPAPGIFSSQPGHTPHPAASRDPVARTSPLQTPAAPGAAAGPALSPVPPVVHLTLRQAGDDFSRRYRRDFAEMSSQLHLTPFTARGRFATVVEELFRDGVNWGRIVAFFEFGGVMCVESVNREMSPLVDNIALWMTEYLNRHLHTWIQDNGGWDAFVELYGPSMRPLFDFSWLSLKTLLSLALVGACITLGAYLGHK
# Sequence of Bcl-XL (Q07817 whole entry): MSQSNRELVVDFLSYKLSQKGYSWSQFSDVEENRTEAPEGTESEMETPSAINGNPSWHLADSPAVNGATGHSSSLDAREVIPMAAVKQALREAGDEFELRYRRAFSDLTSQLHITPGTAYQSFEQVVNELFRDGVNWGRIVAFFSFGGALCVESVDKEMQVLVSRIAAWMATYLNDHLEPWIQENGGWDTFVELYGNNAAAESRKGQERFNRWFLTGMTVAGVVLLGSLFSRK
Compound,IC50 (Bcl-XL) [nM],IC50 (RS4;11 cells) [nM],IC50 (NCI-H1963 cells) [nM],IC50 (Bcl-2) [nM]
"CN(C)C1CCN(CC[C@H](CSc2ccccc2)Nc2ccc(S(=O)(=O)NC(=O)c3ccc(N4CCN(CC5=C(C67CC(C(F)F)(C6)C7)CC(C)(C)CC5)CC4)cc3)cc2S(=O)(=O)C(F)(F)F)CC1 [Example 62, (R)-4-(4-((2-(3-(Difluoromethyl)bicyclo[1.1.1]pentan-1-yl)-4,4-dimethylcyclohex-1-en-1-yl)methyl)piperazin-1-yl)-N-((4-((4-(4-(dimethylamino)piperidin-1-yl)-1-(phenylthio)butan-2-yl)amino)-3-((trifluoromethyl)sulfonyl)phenyl)sulfonyl)benzamide]",≤ 10,100 to 1000,< 500,≤ 10
"CN(C)CC[C@H](CSc1ccccc1)Nc1ccc(S(=O)(=O)NC(=O)c2ccc(N3CCN(CC4=C(C56CC(C(F)F)(C5)C6)CC(C)(C)CC4)CC3)cc2)cc1S(=O)(=O)C(F)(F)F [Example 63, (R)-4-(4-((2-(3-(Difluoromethyl)bicyclo[1.1.1]pentan-1-yl)-4,4-dimethylcyclohex-1-en-1-yl)methyl)piperazin-1-yl)-N-((4-((4-(dimethylamino)-1-(phenylthio)butan-2-yl)amino)-3-((trifluoromethyl)sulfonyl)phenyl)sulfonyl)benzamide]",≤ 10,< 100,< 500,≤ 10
"CC1(C)CCC(CN2CCN(c3ccc(C(=O)NS(=O)(=O)c4ccc(N[C@H](CCN5CCC(O)CC5)CSc5ccccc5)c(S(=O)(=O)C(F)(F)F)c4)cc3)CC2)=C(C23CC(C(F)F)(C2)C3)C1 [Example 61, (R)-4-(4-((2-(3-(Difluoromethyl)bicyclo[1.1.1]pentan-1-yl)-4,4-dimethylcyclohex-1-en-1-yl)methyl)piperazin-1-yl)-N-((4-((4-(4-hydroxypiperidin-1-yl)-1-(phenylthio)butan-2-yl)amino)-3-((trifluoromethyl)sulfonyl)phenyl)sulfonyl)benzamide]",≤ 10,< 100,< 500,≤ 10
"CN(C)CC[C@H](CSc1ccccc1)Nc1ccc(S(=O)(=O)NC(=O)c2ccc(N3CCN(CC4=C(C56CC(C)(C5)C6)CC(C)(C)CC4)CC3)cc2)cc1S(=O)(=O)C(F)(F)F [Example 59, (R)-4-(4-((4,4-dimethyl-2-(3-methylbicyclo[1.1.1]pentan-1-yl)cyclohex-1-en-1-yl)methyl)piperazin-1-yl)-N-((4-((4-(dimethylamino)-1-(phenylthio)butan-2-yl)amino)-3-((trifluoromethyl)sulfonyl)phenyl)sulfonyl)benzamide]",≤ 10,100 to 1000,500 to 1000,≤ 10
"CC1(C)CCC(CN2CCN(c3ccc(C(=O)NS(=O)(=O)c4ccc(N[C@H](CCN5CCNCC5)CSc5ccccc5)c(S(=O)(=O)C(F)(F)F)c4)cc3)CC2)=C(C23CC(C(F)F)(C2)C3)C1 [Example 64, (R)-4-(4-((2-(3-(difluoromethyl)bicyclo[1.1.1]pentan-1-yl)-4,4-dimethylcyclohex-1-en-1-yl)methyl)piperazin-1-yl)-N-((4-((1-(phenylthio)-4-(piperazin-1-yl)butan-2-yl)amino)-3-((trifluoromethyl)sulfonyl)phenyl)sulfonyl)benzamide]",≤ 10,100 to 1000,> 1000,≤ 10
"CN(CCO)CC[C@H](CSc1ccccc1)Nc1ccc(S(=O)(=O)NC(=O)c2ccc(N3CCN(CC4=C(C56CC(C(F)F)(C5)C6)CC(C)(C)CC4)CC3)cc2)cc1S(=O)(=O)C(F)(F)F [Example 60, (R)-4-(4-((2-(3-(difluoromethyl)bicyclo[1.1.1]pentan-1-yl)-4,4-dimethylcyclohex-1-en-1-yl)methyl)piperazin-1-yl)-N-((4-((4-((2-hydroxyethyl)(methyl)amino)-1-(phenylthio)butan-2-yl)amino)-3-((trifluoromethyl)sulfonyl)phenyl)sulfonyl)benzamide]",≤ 10,< 100,500 to 1000,≤ 10
